Laboratory results from patent publication US9868772B2 (INDIANA UNIVERSITY RESEARCH AND TECHNOLOGY CORPORATION, priority 2012, dated 2018).
Numbered stars: 1 amine (or outer) side, 2 acyl side, 3 side chain; on linkers, the order of the positions; unused ones are H or OH. Square brackets hold non-standard residues; d marks the D form. Side chains are listed from the residue outwards. Peptide text beside a SMILES is read from it. * marks the point of attachment. γGlu = O=C(O)[C@H](CCC(=O)[*:2])N[*:1]; Palmitoyl = CCCCCCCCCCCCCCCC(=O)*; Aib = CC(C)(N)C(=O)O

Key:
Assay in all cases: cAMP induction, firefly luciferase reporter assay in HEK293 cells co-transfected with receptor
Format in all cases: cell-based
GIP receptor = target: T1, GIP receptor (Homo sapiens, UniProt P48546)
T1 construct: expressed in transfected cells; host or cells: HEK293
T1 sequence (P48546 22-466): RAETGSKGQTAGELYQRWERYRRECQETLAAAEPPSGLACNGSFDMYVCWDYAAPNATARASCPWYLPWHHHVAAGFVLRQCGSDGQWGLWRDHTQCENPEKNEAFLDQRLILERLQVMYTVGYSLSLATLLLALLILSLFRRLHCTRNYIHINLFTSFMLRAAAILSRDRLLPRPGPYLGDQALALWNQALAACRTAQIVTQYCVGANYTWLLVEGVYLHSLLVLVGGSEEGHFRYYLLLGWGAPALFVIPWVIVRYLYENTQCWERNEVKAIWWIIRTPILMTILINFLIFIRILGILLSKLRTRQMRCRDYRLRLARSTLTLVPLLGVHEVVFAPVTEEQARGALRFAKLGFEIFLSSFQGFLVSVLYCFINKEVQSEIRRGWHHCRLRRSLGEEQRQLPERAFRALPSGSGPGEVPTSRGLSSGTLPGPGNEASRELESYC
Protocol: (§1) The ability of glucagon analogs to induce cAMP was measured in a firefly luciferase-based reporter assay. […] At the end of the incubation 100 microliters of LucLite luminescence substrate reagent (Perkin-Elmer, Wellesley, Mass.) were added to each well. […] Effective 50% concentrations were calculated by using Origin software (OriginLab, Northampton, Mass.

GLP-1 receptor = target: T2, GLP-1 receptor (Homo sapiens, UniProt P43220)
T2 construct: expressed in transfected cells; host or cells: HEK293
T2 sequence (P43220 24-463): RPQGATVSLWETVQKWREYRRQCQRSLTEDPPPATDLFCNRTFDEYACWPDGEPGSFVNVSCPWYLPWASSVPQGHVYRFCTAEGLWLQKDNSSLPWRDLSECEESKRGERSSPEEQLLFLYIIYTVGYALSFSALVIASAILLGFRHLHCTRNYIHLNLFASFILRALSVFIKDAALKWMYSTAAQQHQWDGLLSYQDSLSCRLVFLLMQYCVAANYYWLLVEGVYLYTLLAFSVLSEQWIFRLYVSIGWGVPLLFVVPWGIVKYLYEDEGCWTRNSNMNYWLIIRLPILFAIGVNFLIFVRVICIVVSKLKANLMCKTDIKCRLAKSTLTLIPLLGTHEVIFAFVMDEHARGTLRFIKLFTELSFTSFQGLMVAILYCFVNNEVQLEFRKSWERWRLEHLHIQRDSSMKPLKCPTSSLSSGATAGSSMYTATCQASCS
Protocol: as §1

glucagon receptor = target: T3, glucagon receptor (Homo sapiens, UniProt P47871)
T3 construct: expressed in transfected cells; host or cells: HEK293
T3 sequence (P47871 26-477): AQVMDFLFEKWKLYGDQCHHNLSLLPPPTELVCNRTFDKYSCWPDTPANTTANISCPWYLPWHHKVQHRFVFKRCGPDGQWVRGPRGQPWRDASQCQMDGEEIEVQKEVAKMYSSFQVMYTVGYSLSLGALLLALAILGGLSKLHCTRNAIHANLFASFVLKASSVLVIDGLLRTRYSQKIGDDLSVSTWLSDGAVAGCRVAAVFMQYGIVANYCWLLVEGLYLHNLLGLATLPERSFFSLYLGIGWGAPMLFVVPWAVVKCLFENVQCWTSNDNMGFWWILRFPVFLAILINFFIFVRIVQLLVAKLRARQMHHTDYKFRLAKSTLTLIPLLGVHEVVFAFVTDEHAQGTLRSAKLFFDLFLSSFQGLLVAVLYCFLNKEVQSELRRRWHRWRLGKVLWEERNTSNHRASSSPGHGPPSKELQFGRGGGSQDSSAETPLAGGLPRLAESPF
Protocol: as §1

[1] = Table 3, analogs of SEQ ID NO: 12
[2] = Table 2, analogs of SEQ ID NO: 10
[3] = Table 1, analogs of SEQ ID NO: 37

Q: For `CCCCCCCCCCCCCCCC(=O)N[C@@H](CCC(=O)NCCCC[C@H](NC(=O)[C@H](CC(=O)O)NC(=O)[C@H](CO)NC(=O)[C@@H](NC(=O)[C@H](Cc1ccccc1)NC(=O)[C@@H](NC(=O)CNC(=O)[C@H](CCC(N)=O)NC(=O)[C@H](C)NC(=O)[C@@H](Cc1ccc(O)cc1)NC(C)=O)[C@@H](C)O)[C@@H](C)O)C(=O)N[C@@H](CO)C(=O)N[C@@H](CCCCN)C(=O)N[C@@H](Cc1ccc(O)cc1)C(=O)N[C@@H](CC(C)C)C(=O)N[C@@H](CC(=O)O)C(=O)N[C@@H](CCC(=O)O)C(=O)N[C@@H](CCCNC(=N)N)C(=O)N[C@@H](C)C(=O)N[C@@H](C)C(=O)N[C@@H](CCC(N)=O)C(=O)N[C@@H](CC(=O)O)C(=O)N[C@@H](Cc1ccccc1)C(=O)N[C@H](C(=O)N[C@@H](CCC(N)=O)C(=O)N[C@@H](Cc1c[nH]c2ccccc12)C(=O)N[C@@H](CC(C)C)C(=O)N[C@@H](CC(C)C)C(=O)N[C@@H](CCC(=O)O)C(=O)N[C@@H](C)C(=O)NCC(=O)N1CCC[C@H]1C(=O)N[C@@H](CO)C(=O)N[C@@H](CO)C(=O)NCC(=O)N[C@@H](C)C(=O)N1CCC[C@H]1C(=O)N1CCC[C@H]1C(=O)N1CCC[C@H]1C(=O)N[C@@H](CO)C(N)=O)C(C)C)C(=O)O` [compound 146] (Ac-[dY]AQGTFTSDK([γGlu-Palmitoyl])SKYLDERAAQDFVQWLLEAGPSSGAPPPS-NH2), which EC50 (GIP receptor; [1]) is on record?
A: The EC50 was 6 pM.

Q: What about the EC50 (GLP-1 receptor; [1]) of the same molecule?
A: The EC50 was 7 pM.

Q: What about the EC50 (glucagon receptor; [1]) of the same molecule?
A: The EC50 was 9 pM.

Q: “Ac-[dY]AQGTFTSDYSKYLDERAAQDFVQWLLEAGPSSGAPPPSK([γGlu-γGlu-Palmitoyl])G-NH2 [compound 159]” was tested. Which EC50 (GIP receptor; [2]) did it give?
A: Its EC50 is 80 pM.

Q: And the EC50 (GLP-1 receptor; [2])?
A: Its EC50 is 9 pM.

Q: And the EC50 (glucagon receptor; [2])?
A: Its EC50 is 40 pM.

Q: With `CCCCCCCCCCCCCCCC(=O)N[C@@H](CCC(=O)NCCCC[C@H](NC(=O)[C@H](CC(=O)O)NC(=O)[C@H](CO)NC(=O)[C@@H](NC(=O)[C@H](Cc1ccccc1)NC(=O)[C@@H](NC(=O)CNC(=O)[C@H](CCC(=O)O)NC(=O)[C@H](C)NC(=O)[C@@H](Cc1c[nH]cn1)NC(C)=O)[C@@H](C)O)[C@@H](C)O)C(=O)N[C@@H](CO)C(=O)N[C@@H](CCCCN)C(=O)N[C@@H](Cc1ccc(O)cc1)C(=O)N[C@@H](CC(C)C)C(=O)N[C@@H](CC(=O)O)C(=O)N[C@@H](CCC(=O)O)C(=O)N[C@@H](CCCNC(=N)N)C(=O)N[C@@H](C)C(=O)N[C@@H](C)C(=O)N[C@@H](CCC(N)=O)C(=O)N[C@@H](CC(=O)O)C(=O)N[C@@H](Cc1ccccc1)C(=O)N[C@H](C(=O)N[C@@H](CCC(N)=O)C(=O)N[C@@H](Cc1c[nH]c2ccccc12)C(=O)N[C@@H](CC(C)C)C(=O)N[C@@H](CC(C)C)C(=O)N[C@@H](CCC(=O)O)C(=O)N[C@@H](C)C(=O)NCC(=O)N1CCC[C@H]1C(=O)N[C@@H](CO)C(=O)N[C@@H](CO)C(=O)NCC(=O)N[C@@H](C)C(=O)N1CCC[C@H]1C(=O)N1CCC[C@H]1C(=O)N1CCC[C@H]1C(=O)N[C@@H](CO)C(N)=O)C(C)C)C(=O)O` [compound 154] (Ac-[dH]AEGTFTSDK([γGlu-Palmitoyl])SKYLDERAAQDFVQWLLEAGPSSGAPPPS-NH2) as the molecule, how does the EC50 (GIP receptor; [2]) read?
A: Its EC50 is 24 pM.

Q: What about the EC50 (GLP-1 receptor; [2]) of the same molecule?
A: The EC50 was 4 pM.

Q: What about the EC50 (glucagon receptor; [2]) of the same molecule?
A: Its EC50 is 847 pM.

Q: With `CCCCCCCCCCCCCCCC(=O)N[C@@H](CCC(=O)NCCCC[C@H](NC(=O)[C@H](CC(=O)O)NC(=O)[C@H](CO)NC(=O)[C@@H](NC(=O)[C@H](Cc1ccccc1)NC(=O)[C@@H](NC(=O)CNC(=O)[C@H](CCC(N)=O)NC(=O)[C@H](C)NC(=O)[C@H](N)Cc1c[nH]cn1)[C@@H](C)O)[C@@H](C)O)C(=O)N[C@@H](CO)C(=O)N[C@@H](CCCCN)C(=O)N[C@@H](Cc1ccc(O)cc1)C(=O)N[C@@H](CC(C)C)C(=O)N[C@@H](CC(=O)O)C(=O)N[C@@H](CCC(=O)O)C(=O)N[C@@H](CCCNC(=N)N)C(=O)N[C@@H](C)C(=O)N[C@@H](C)C(=O)N[C@@H](CCC(N)=O)C(=O)N[C@@H](CC(=O)O)C(=O)N[C@@H](Cc1ccccc1)C(=O)N[C@H](C(=O)N[C@@H](CCC(N)=O)C(=O)N[C@@H](Cc1c[nH]c2ccccc12)C(=O)N[C@@H](CC(C)C)C(=O)N[C@@H](CC(C)C)C(=O)N[C@@H](CCC(=O)O)C(=O)NCC(=O)NCC(=O)N1CCC[C@H]1C(=O)N[C@@H](CO)C(=O)N[C@@H](CO)C(=O)NCC(=O)N[C@@H](C)C(=O)N1CCC[C@H]1C(=O)N1CCC[C@H]1C(=O)N1CCC[C@H]1C(=O)N[C@@H](CO)C(N)=O)C(C)C)C(=O)O` [compound 16] as the molecule, how does the EC50 (GIP receptor; [3]) read?
A: The EC50 was 10 pM.

Q: What about the EC50 (GLP-1 receptor; [3]) of the same molecule?
A: Its EC50 is 2 pM.

Q: What about the EC50 (glucagon receptor; [3]) of the same molecule?
A: The EC50 was 10 pM.

Q: Which EC50 (GIP receptor; [3]) does the source give for `CCCCCCCCCCCCCCCC(=O)N[C@@H](CCC(=O)NCCCC[C@H](NC(=O)[C@H](CC(=O)O)NC(=O)[C@H](CO)NC(=O)[C@@H](NC(=O)[C@H](Cc1ccccc1)NC(=O)[C@@H](NC(=O)CNC(=O)[C@H](CCC(N)=O)NC(=O)C(C)(C)NC(=O)[C@@H](N)Cc1c[nH]cn1)[C@@H](C)O)[C@@H](C)O)C(=O)N[C@@H](CO)C(=O)N[C@@H](CCCCN)C(=O)N[C@@H](Cc1ccc(O)cc1)C(=O)N[C@@H](CC(C)C)C(=O)N[C@@H](CC(=O)O)C(=O)N[C@@H](CCC(=O)O)C(=O)N[C@@H](CCCNC(=N)N)C(=O)N[C@@H](C)C(=O)N[C@@H](C)C(=O)N[C@@H](CCC(N)=O)C(=O)N[C@@H](CC(=O)O)C(=O)N[C@@H](Cc1ccccc1)C(=O)N[C@H](C(=O)N[C@@H](CCC(N)=O)C(=O)N[C@@H](Cc1c[nH]c2ccccc12)C(=O)N[C@@H](CC(C)C)C(=O)N[C@@H](CC(C)C)C(=O)N[C@@H](CCC(=O)O)C(=O)NCC(=O)NCC(=O)N1CCC[C@H]1C(=O)N[C@@H](CO)C(=O)N[C@@H](CO)C(=O)NCC(=O)N[C@@H](C)C(=O)N1CCC[C@H]1C(=O)N1CCC[C@H]1C(=O)N1CCC[C@H]1C(=O)N[C@@H](CO)C(N)=O)C(C)C)C(=O)O` [compound 37] (H-H[Aib]QGTFTSDK([γGlu-Palmitoyl])SKYLDERAAQDFVQWLLEGGPSSGAPPPS-NH2; N-terminus assumed) here?
A: The EC50 was 3 pM.

Q: What about the EC50 (GLP-1 receptor; [3]) of the same molecule?
A: The EC50 was 6 pM.

Q: What about the EC50 (glucagon receptor; [3]) of the same molecule?
A: The EC50 was 9 pM.

Q: For `CCCCCCCCCCCCCCCC(=O)N[C@@H](CCC(=O)NCCCC[C@H](NC(=O)[C@H](CC(=O)O)NC(=O)[C@H](CO)NC(=O)[C@@H](NC(=O)[C@H](Cc1ccccc1)NC(=O)[C@@H](NC(=O)CNC(=O)[C@H](CC(C)C)NC(=O)[C@H](C)NC(=O)[C@@H](Cc1ccc(O)cc1)NC(C)=O)[C@@H](C)O)[C@@H](C)O)C(=O)N[C@@H](CO)C(=O)N[C@@H](CCCCN)C(=O)N[C@@H](Cc1ccc(O)cc1)C(=O)N[C@@H](CC(C)C)C(=O)N[C@@H](CC(=O)O)C(=O)N[C@@H](CCC(=O)O)C(=O)N[C@@H](CCCNC(=N)N)C(=O)N[C@@H](C)C(=O)N[C@@H](C)C(=O)N[C@@H](CCC(N)=O)C(=O)N[C@@H](CC(=O)O)C(=O)N[C@@H](Cc1ccccc1)C(=O)N[C@H](C(=O)N[C@@H](CCC(N)=O)C(=O)N[C@@H](Cc1c[nH]c2ccccc12)C(=O)N[C@@H](CC(C)C)C(=O)N[C@@H](CC(C)C)C(=O)N[C@@H](CCC(=O)O)C(=O)NCC(=O)NCC(=O)N1CCC[C@H]1C(=O)N[C@@H](CO)C(=O)N[C@@H](CO)C(=O)NCC(=O)N[C@@H](C)C(=O)N1CCC[C@H]1C(=O)N1CCC[C@H]1C(=O)N1CCC[C@H]1C(=O)N[C@@H](CO)C(N)=O)C(C)C)C(=O)O` [compound 142] (Ac-[dY]ALGTFTSDK([γGlu-Palmitoyl])SKYLDERAAQDFVQWLLEGGPSSGAPPPS-NH2), which EC50 (GIP receptor; [2]) is on record?
A: The EC50 was 2 pM.

Q: And the EC50 (GLP-1 receptor; [2])?
A: Its EC50 is 5 pM.

Q: And the EC50 (glucagon receptor; [2])?
A: The EC50 was 103 pM.
